Laboratory results as given in paper doi:10.1101/2025.10.31.685773v1 (biorxiv, 2025).

Experiments:
[1] = system: CCCC(=O)SCCNC(=O)CCNC(=O)[C@H](O)C(C)(C)COP(=O)(O)OP(=O)(O)OC[C@H]1O[C@@H](n2cnc3c(N)ncnc32)[C@H](O)[C@@H]1OP(=O)(O)O; test: purified protein; settings: 100 mM acetate as co-substrate, pH 7.5, no NAD+
[2] = biological target: TtCoAT·ADLP complex (NAD(H) site in ADLP) (Thermus thermophilus, UniProt Q72IQ0); test: isothermal titration calorimetry; format: binding
ADLP = biological target: T1, ADLP (Thermus thermophilus, UniProt Q72IQ0); test: isothermal titration calorimetry; format: binding
T1 sequence (Q72IQ0 1-345): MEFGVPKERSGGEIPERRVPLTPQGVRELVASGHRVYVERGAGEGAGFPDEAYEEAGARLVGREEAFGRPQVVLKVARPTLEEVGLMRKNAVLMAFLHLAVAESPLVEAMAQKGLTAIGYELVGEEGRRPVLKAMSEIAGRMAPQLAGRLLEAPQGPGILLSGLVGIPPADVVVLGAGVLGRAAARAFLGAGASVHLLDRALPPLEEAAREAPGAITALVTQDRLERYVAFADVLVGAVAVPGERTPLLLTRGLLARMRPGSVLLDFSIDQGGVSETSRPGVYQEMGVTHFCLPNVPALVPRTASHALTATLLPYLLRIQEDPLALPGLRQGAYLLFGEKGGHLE

Row | Kd [2] [µM] | Kd (ADLP) [µM] | Compound | Km [1] [µM]
1 | – | – | TtCoAT·ADLP (CoA transferase site) (Thermus thermophilus HB27) | 33.1 ± 2.8
2 | 3.1 ± 0.33 | 9.1 | NC(=O)c1ccc[n+]([C@@H]2O[C@H](COP(=O)(O)OP(=O)(O)OC[C@H]3O[C@@H](n4cnc5c(N)ncnc54)[C@H](O)[C@@H]3O)[C@@H](O)[C@H]2O)c1 [NAD^+] | –
3 | 0.34 ± 0.051 | 0.22 | NC(=O)C1=CN([C@@H]2O[C@H](COP(=O)(O)OP(=O)(O)OC[C@H]3O[C@@H](n4cnc5c(N)ncnc54)[C@H](O)[C@@H]3O)[C@@H](O)[C@H]2O)C=CC1 [NADH] | –
